Experimental data as given in patent publication US10100008B2, “Immunostimulating agent” (AJINOMOTO CO., INC., priority 2014, dated 2018).
Values belong to the molecule of their own block, whether it stands above or below them.

Key:
[1] = test system: anti OVA-specific IgG1 subclass antibody; experiment: Adjuvant activity test: anti OVA-specific IgG1 subclass antibody in serum after subcutaneous immunization with OVA; assay type: in vivo, BALB/c mice; conditions: dorsal-subcutaneous
Description: One week later, the secondary immunization was carried out by dorsal-subcutaneous administration of solutions similar to those of the above-mentioned (1) to (5) again. Two weeks from the secondary immunization, the whole blood and spleen were extracted under anesthesia, and the obtained serum sample was measured for anti OVA-specific IgG1 subclass antibody. A method for measurement of the anti OVA-specific IgG1 subclass antibody in Example 1, and the following Examples 2, 4, 7 to 10 and 13 to 16 is as follows.
To a 96 well plate was added 5 μg/ml OVA at 100 μl/well, and the mixture was incubated at 4° C. overnight. After incubation, the mixture was washed three times with 200 μl of PBS-T (PBS (phosphate buffered saline)+0.05% (v/v) Tween 20) per well, and blocked with 100 μl of 5% FCS (fatal calf serum)/PBS solution per well at room temperature for 1 to 2 hr. Thereafter, the mixture was washed three times with PBS-T (200 μl/well), a diluted serum sample (100 μl/well) or the same amount of 5% FCS/PBS solution as a control was added, and the mixture was incubated at 37° C. for 1 hr. Thereafter, the mixture was washed five times with PBS-T (200 μl/well), a diluted biotinylated anti-mouse IgG1 antibody (100 μl/well) was added, and the mixture was incubated at 37° C. for 45 min. Thereafter, the mixture was washed five times with PBS-T (200 μl/well), a diluted anti-biotin-HRP antibody was added (100 μl/well), and the mixture was incubated at 37° C. for another 30 min. Thereafter, the mixture was washed five times with PBS-T (200 μl/well), TMB substrate solution was added (100 μl/well), and the mixture was incubated at room temperature for 10 to 15 min. Thereafter, a reaction quenching liquid (2N sulfuric acid solution) was added (50 μl/well) to discontinue a color developing reaction, and the absorbance (OD Value=450 nm) was measured by a microplate reader.
One week later, the secondary immunization was carried out by dorsal-subcutaneous administration of solutions similar to those of the above-mentioned (1) to (6) again. Two weeks from the secondary immunization, the whole blood and spleen were extracted under anesthesia, and the obtained serum sample was measured for anti OVA-specific IgG1 subclass antibody.
8-Week-old female BALB/c mice were divided into groups (N=6), and each group was primarily immunized by dorsal-subcutaneous administration of (1) ovalbumin (OVA) ([…] administration group), (2) OVA (10 μg) and, as an adjuvant, N,N′-bis(2-heptylundecanoyl)-L-cystine dimethyl ester (SZ23) ([…]), (3) OVA (10 μg) and N,N′-bis(dodecanoyl)-L-cystine dimethyl ester (SZ24) ([…]), and (4) saline (saline single administration group), each per mouse. One week later, the secondary immunization was carried out by dorsal-subcutaneous administration of solutions similar to those of the above-mentioned (1) to (4) again. Two weeks from the secondary immunization, the whole blood was extracted under anesthesia, and the obtained serum sample was measured for anti OVA-specific IgG1 subclass antibody. SZ24 is disclosed in JP-A-4-230359, which is incorporated herein by reference in its entirety.
8-Week-old female BALB/c mice were divided into groups (N=6), and each group was primarily immunized by dorsal-subcutaneous administration of (1) ovalbumin (OVA) ([…] administration group), (2) OVA (10 μg) and, as an adjuvant, N,N′-bis(2-tetradecylhexadecanoyl)-L-cystine dimethyl ester (SZ37) (0.256 μmol) added to saline, (3) OVA (10 μg) and N,N′-bis(2-octadecyleicosanoyl)-L-cystine dimethyl ester (SZ38) (0.256 μmol) added to saline, (4) OVA (10 μg) and SZ37 (0.256 μmol) dissolved or dispersed in 5% αCD-added saline, and (5) OVA (10 μg) and SZ38 (0.256 μmol) dissolved or dispersed in 5% αCD-added saline, each per mouse. One week later, the secondary immunization was carried out by dorsal-subcutaneous administration of solutions or dispersions similar to those of the above-mentioned (1) to (5) again. […]

[2] = Dispersibility investigation test (turbidity, OD 650 nm; photograph); assay type: physicochemical; conditions: for dispersion in 5% αCD-added saline (photograph) / dispersion in saline (photograph): after stirring; for dispersion in saline (photograph): 0.256 μmol in 1 mL saline
Description: N,N′-bis(2-tetradecylhexadecanoyl)-L-cystine dimethyl ester (SZ37) and N,N′-bis(2-octadecyleicosanoyl)-L-cystine dimethyl ester (SZ38) (0.256 μmol) were each dispensed to a 2 mL tube containing zirconia beads, saline or 5% α-cyclodextrin (hereinafter to be also simply referred to as αCD)-added saline (1 mL) was added, and the mixture was stirred. The absorbance (OD Value=650 nm) was measured by a microplate reader, and the turbidity was calculated as an index of dispersibility. The measurement method of the turbidity is as follows.
SZ37 and SZ38 (0.256 μmol) were each dispensed to a 2 mL tube containing zirconia beads, saline or 5% αCD-added saline (1 mL) was added, and the mixture was vigorously stirred three times under conditions of 3.15 seconds one time at 6000 rpm. The mixture was dispensed by 200 μL to a 96 well plate, and the absorbance (OD Value=650 nm) was measured by a microplate reader. As a control, kaolinite (1 mg) was dissolved in distilled water (1 L), and the absorbance (OD Value=650 nm) was measured by a microplate reader. The absorbance thereof (OD Value=650 nm) was defined to be turbidity: 1, and the turbidity of each sample was calculated from the ratio with the measured value of kaolinite.
Whether the dispersion state varies depending on the dispersion solvent when SZ37 and SZ38 are dispersed was studied. In the same manner as in Example 10, SZ37 and SZ38 were added 1% β-cyclodextrin (hereinafter to be also referred to simply as βCD)-added saline or 5% αCD-added saline, and the mixture was stirred. The absorbance (OD Value=650 nm) was measured by a microplate reader, and the turbidity was calculated as an index of dispersibility. The measurement method of turbidity as in Example 11.

[3] = 2.56 μmol in saline with OVA 10 μg, primary + secondary immunization, serum two weeks after, compared to OVA single administration group
[4] = 0.256 μmol dispersed in 5% αCD-added saline with OVA 10 μg, compared to control (OVA in 5% αCD-added saline)
[5] = 0.256 μmol dispersed in 5% αCD-added saline with OVA 10 μg, compared to OVA single administration group (OVA in saline)
[6] = 0.256 μmol in saline with OVA 10 μg, compared to OVA single administration group
[7] = 0.256 μmol in 1 mL 5% αCD-added saline
[8] = 0.256 μmol in 1 mL 5% αCD-added saline, compared to dispersion in saline
[9] = 5% αCD-added saline, compared to dispersion in 1% βCD-added saline

Compound: CCCCC/C=C\C/C=C\CCCCCCCC(=O)N[C@@H](CSSC[C@H](NC(=O)CCCCCCC/C=C\C/C=C\CCCCC)C(=O)OC)C(=O)OC [SZ28, N,N′-bis(linoleoyl)-L-cystine dimethyl ester, reference compound]
production of anti OVA-specific IgG1 subclass antibody [1, 3]: did not increase significantly

Compound: COC(=O)[C@H](CSSC[C@H](NC(=O)C(CCC(C)CC(C)(C)C)C(C)CC(C)(C)C)C(=O)OC)NC(=O)C(CCC(C)CC(C)(C)C)C(C)CC(C)(C)C (stereo partly drawn) [SZ23′, N,N′-bis[5,7,7-trimethyl-2-(1,3,3-trimethylbutyl)octanoyl]-L-cystine dimethyl ester]
production of anti OVA-specific IgG1 subclass antibody [1, 3]: significantly increased

Compound: CCCCCCCCCCCCCCCCCCCCCC(=O)N[C@@H](CSSC[C@H](NC(=O)CCCCCCCCCCCCCCCCCCCCC)C(=O)OC)C(=O)OC [SZ66, N,N′-bis(docosanoyl)-L-cystine dimethyl ester]
production of anti OVA-specific IgG1 subclass antibody [1, 4]: significantly increased

Compound: COC(=O)[C@@H](N)CSSC[C@H](N)C(=O)OC [(CyssOMe)2, cystine dimethyl ester, reference compound]
production of anti OVA-specific IgG1 subclass antibody [1, 3]: did not show a significant difference

Compound: CCCCCCCCCCCCCCCCCCCCCCCCCCCCCC(=O)N[C@@H](CSSC[C@H](NC(=O)CCCCCCCCCCCCCCCCCCCCCCCCCCCCC)C(=O)OC)C(=O)OC [SZ36, N,N′-bis(triacontanoyl)-L-cystine dimethyl ester]
production of anti OVA-specific IgG1 subclass antibody [1, 4]: significantly increased
production of anti OVA-specific IgG1 subclass antibody [1, 3]: significantly increased

Compound: CCCCCCCCCCCC(=O)N[C@@H](CSSC[C@H](NC(=O)CCCCCCCCCCC)C(=O)OC)C(=O)OC [SZ24, N,N′-bis(dodecanoyl)-L-cystine dimethyl ester, reference compound]
production of anti OVA-specific IgG1 subclass antibody [1, 3]: did not show a significant difference

Compound: CCCCCCCCCCCCC(=O)N[C@@H](CSSC[C@H](NC(=O)CCCCCCCCCCCC)C(=O)OC)C(=O)OC [SZ34, N,N′-bis(tridecanoyl)-L-cystine dimethyl ester]
production of anti OVA-specific IgG1 subclass antibody [1, 4]: significantly increased
production of anti OVA-specific IgG1 subclass antibody [1, 3]: significantly increased

dispersion in 5% αCD-added saline (photograph) [2, 7]: could be uniformly dispersed
turbidity (index of dispersibility) [2, 8]: significantly higher
dispersion in saline (photograph) [2]: could not be dispersed
turbidity (index of dispersibility) [2, 9]: significantly higher
Compound: CCCCCCCCCCCCCCCCCCC(CCCCCCCCCCCCCCCCCC)C(=O)N[C@@H](CSSC[C@H](NC(=O)C(CCCCCCCCCCCCCCCCCC)CCCCCCCCCCCCCCCCCC)C(=O)OC)C(=O)OC [SZ38, N,N′-bis(2-octadecyleicosanoyl)-L-cystine dimethyl ester]
production of anti OVA-specific IgG1 subclass antibody [1, 5]: significantly increased
production of anti OVA-specific IgG1 subclass antibody [1, 6]: did not increase significantly

Compound: CCCCCCCCCCCCCCCC(=O)N[C@@H](CSSC[C@H](NC(=O)CCCCCCCCCCCCCCC)C(=O)OC)C(=O)OC [SZ22, N,N′-bis(hexadecanoyl)-L-cystine dimethyl ester]
production of anti OVA-specific IgG1 subclass antibody [1, 4]: significantly increased
production of anti OVA-specific IgG1 subclass antibody [1, 3]: significantly increased

dispersion in 5% αCD-added saline (photograph) [2, 7]: could be uniformly dispersed
turbidity (index of dispersibility) [2, 8]: significantly higher
dispersion in saline (photograph) [2]: could not be dispersed
turbidity (index of dispersibility) [2, 9]: significantly higher
Compound: CCCCCCCCCCCCCCC(CCCCCCCCCCCCCC)C(=O)N[C@@H](CSSC[C@H](NC(=O)C(CCCCCCCCCCCCCC)CCCCCCCCCCCCCC)C(=O)OC)C(=O)OC [SZ37, N,N′-bis(2-tetradecylhexadecanoyl)-L-cystine dimethyl ester]
production of anti OVA-specific IgG1 subclass antibody [1, 5]: significantly increased
production of anti OVA-specific IgG1 subclass antibody [1, 6]: did not increase significantly

Compound: CC(C)CCCCCCCCCCCCCCC(=O)O [ISA, isostearic acid, reference compound]
production of anti OVA-specific IgG1 subclass antibody ([1]; 5.12 μmol in saline with OVA 10 μg, compared to OVA single administration group): did not show a significant difference
